Results as given in ChEMBL document CHEMBL3137667, “[Drug-induced liver injury; fourteenth updated edition of the bibliographic database of liver injuries and related drugs]” (Gastroenterol Clin Biol, 2004).

Assays:
[1] = Highest frequency of moderate liver toxicity observed during clinical trials, expressed as a percentage. [column '% BIOL' in source]; conditions: human
[2] = Highest frequency of acute liver toxicity observed during clinical trials, expressed as a percentage. [column '% AIGUE' in source]; conditions: human
[3] = human, serum
[4] = human, serum; remark: listed apart in the source
[5] = human
[6] = human; remark: listed apart in the source
[7] = human; remark: listed apart in the source
[8] = human, serum, 4383 h
[9] = human; remark: listed apart in the source
[10] = human; remark: listed apart in the source
[11] = human; remark: listed apart in the source
[12] = human; remark: listed apart in the source
[13] = human; remark: listed apart in the source
[14] = human; remark: listed apart in the source
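For Hepatotoxicity (association with vascular disease) in this document: count of indexed literature references reporting vascular liver injury in humans, e.g. peliosis hepatitis, hepatic veno-occlusive disease or Budd-Chiari syndrome.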
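For Hepatotoxicity (benign tumour) in this document: value is a count of indexed literature references citing a benign tumour confirmed by histopathology.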
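For Hepatotoxicity (choleostasis) in this document: human cholestatic liver injury, shown by histopathology or by peak ALT or AST elevation over alkaline phosphatase ratio below 2, value counts indexed literature reports.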
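For Hepatotoxicity (chronic liver disease) in this document: chronic liver injury confirmed by histopathology or persistently raised serum aminotransferase activity beyond 6 months, value given as the count of indexed literature references.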
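For Hepatotoxicity (cirrhosis) in this document: value is a count of indexed literature references reporting cirrhosis confirmed by histopathology.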
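For Hepatotoxicity (cytolytic) in this document: human cytolytic liver injury, shown by histopathology or by a ratio above 5 of peak ALT or AST elevation to alkaline phosphatase elevation, value counts indexed references.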
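For Hepatotoxicity (granulomatous hepatitis) in this document: value is a count of indexed literature references reporting granulomatous liver disease confirmed by histopathology.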
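For Hepatotoxicity (malignant tumour) in this document: malignant tumour confirmed by histopathology, value gives the count of indexed literature references reporting it.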
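For Hepatotoxicity (severe hepatitis) in this document: human clinical data: severe hepatitis, meaning potentially life-threatening liver failure or clinically observed cases, the value counts how many indexed literature references report it.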
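For Hepatotoxicity (steatosis) in this document: steatosis confirmed by histopathology, value is the count of indexed references.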

Row | Structure (SMILES) | Hepatotoxicity (moderate) [1] | Hepatotoxicity (acute) [2] | Hepatotoxicity (moderate) [3] | Hepatotoxicity (acute) [4] | Hepatotoxicity (cytolytic) [5] | Hepatotoxicity (choleostasis) [6] | Hepatotoxicity (severe hepatitis) [7] | Hepatotoxicity (chronic liver disease) [8] | Hepatotoxicity (cirrhosis) [9] | Hepatotoxicity (granulomatous hepatitis) [10] | Hepatotoxicity (association with vascular disease) [11] | Hepatotoxicity (steatosis) [12] | Hepatotoxicity (malignant tumour) [13] | Hepatotoxicity (benign tumour) [14]
1 | CO[C@@H]1C[C@](C)(O)Cc2cc3c(c(O)c21)C(=O)c1c(O)cc2c(c1C3=O)O[C@@H]1O[C@@]2(C)[C@H](O)[C@@H](N(C)C)[C@@H]1O [MENOGARIL] | 16.7% | 0% | 4 | 0 | 0 | 0 | 0 | 0 | 0 | 0 | 0 | 0 | 0 | 0
2 | CC/C(=C(/c1ccc(OCCN(C)C)cc1)c1cccc(O)c1)c1ccccc1 [DROLOXIFENE] | 6.6% | 0% | 4 | 0 | 0 | 0 | 0 | 0 | 0 | 0 | 0 | 0 | 0 | 0
3 | COc1ccc([C@@H]2Sc3cc(Cl)ccc3N(CCN(C)C)C(=O)[C@@H]2OC(C)=O)cc1 [CLENTIAZEM] | 3.7% | 0% | 1 | 0 | 0 | 0 | 0 | 0 | 0 | 0 | 0 | 0 | 0 | 0
4 | COc1ccc(C(=O)Nc2ccccc2CCC2CCCCN2C)cc1 (centres undefined) [ENCAINIDE] | 0% | 0% | 0 | 1 | 0 | 0 | 0 | 0 | 0 | 0 | 0 | 0 | 0 | 0
5 | O=C1NCCN1CCN1CCC(c2cn(-c3ccc(F)cc3)c3ccc(Cl)cc23)CC1 [SERTINDOLE] | 1.4% | 0% | 1 | 0 | 0 | 0 | 0 | 0 | 0 | 0 | 0 | 0 | 0 | 0
6 | COC(=O)C1=C(C#N)NC(C)=C(C(=O)OC(C)C)C1c1cccc([N+](=O)[O-])c1 (centres undefined) [NILVADIPINE] | 6.3% | 0% | 3 | 0 | 0 | 0 | 0 | 0 | 0 | 0 | 0 | 0 | 0 | 0
7 | CN1CCN(C2=Nc3cc(F)ccc3Cc3ccccc32)CC1 [FLUPERLAPINE] | 23% | 0% | 4 | 0 | 0 | 0 | 0 | 0 | 0 | 0 | 0 | 0 | 0 | 0
8 | CCOC(=O)Nc1ccc(NCc2ccc(F)cc2)nc1N [FLUPIRTINE] | 10% | 0% | 2 | 0 | 0 | 0 | 0 | 0 | 0 | 0 | 0 | 0 | 0 | 0
9 | COc1cccc2c1C(=O)c1c(O)c3c(c(O)c1C2=O)C[C@@](O)(C(=O)CO)C[C@@H]3O[C@H]1C[C@H](N)[C@H](O[C@@H]2CCCCO2)[C@H](C)O1 [PIRARUBICIN] | 1.1% | 0% | 1 | 0 | 0 | 0 | 0 | 0 | 0 | 0 | 0 | 0 | 0 | 0
10 | CO[C@@H]1[C@H](OC(=O)/C=C/C=C/C=C/C=C/C(=O)O)CC[C@]2(CO2)[C@H]1[C@@]1(C)O[C@@H]1CC=C(C)C [FUMAGILLIN] | 16.7% | 3.4% | 2 | 1 | 1 | 0 | 0 | 0 | 0 | 0 | 0 | 0 | 0 | 0
11 | O=C(COCCOCCOCC(=O)Nc1c(I)cc(I)c(C(=O)O)c1I)Nc1c(I)cc(I)c(C(=O)O)c1I [IOTROXIC ACID] | 0% | 0% | 1 | 0 | 0 | 0 | 0 | 0 | 0 | 0 | 0 | 0 | 0 | 0
